Laboratory results published in ChEMBL document CHEMBL3046076, “3D-QSAR CoMFA and CoMSIA studies on a set of diverse 1a-adrenergic receptor antagonists” (Med Chem Res, 2011).

Target: T1, Alpha-1A adrenergic receptor (Homo sapiens, UniProt P35348)
T1 sequence (P35348 whole entry): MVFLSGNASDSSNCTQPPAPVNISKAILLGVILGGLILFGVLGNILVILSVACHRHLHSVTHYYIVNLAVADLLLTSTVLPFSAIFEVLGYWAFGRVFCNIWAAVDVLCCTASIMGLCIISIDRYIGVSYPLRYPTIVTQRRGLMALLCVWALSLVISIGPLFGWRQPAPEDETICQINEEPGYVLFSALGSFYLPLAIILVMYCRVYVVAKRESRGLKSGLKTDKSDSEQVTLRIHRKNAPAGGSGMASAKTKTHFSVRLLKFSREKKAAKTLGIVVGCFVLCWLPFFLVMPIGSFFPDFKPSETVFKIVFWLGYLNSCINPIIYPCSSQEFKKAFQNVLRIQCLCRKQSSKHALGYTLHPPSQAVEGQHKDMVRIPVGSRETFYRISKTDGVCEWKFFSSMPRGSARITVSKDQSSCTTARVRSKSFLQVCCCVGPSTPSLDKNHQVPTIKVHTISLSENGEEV
Experiment: Binding affinity to adrenergic alpha1A receptor (unknown origin)

Row | SMILES | Ki (read-out: Ki) | Ki (read-out: pKi (converted))
1 | COc1cc2nc3c(c(N)c2cc1OC)CCC(CNC(=O)c1ccoc1)C3 (stereo unspecified) | 95.5 nM | 2570 nM
2 | CC(CN1CCN(c2cc(Cl)ccc2Cl)CC1)N1C(=O)CC2(CCCC2)CC1=O (stereo unspecified) | 149 nM | 151 nM
3 | COc1ccccc1N1CCN(CC2CO[C@H](c3ccccc3)O2)CC1 (stereo partly specified) | 28.8 nM | –
4 | O=C1CC2(CCCC2)CC(=O)N1CCN1CCN(c2ccccc2)CC1 | 2680 nM | –
5 | COc1cccc(OC)c1OCCN[C@H]1C[C@@H](c2ccccc2)c2ccccc2S1 | 0.08 nM | 0.0891 nM
6 | O=C1CC2(CCCC2)CC(=O)N1CCN1CCN(c2cc(F)ccc2Cl)CC1 | 86.2 nM | –
7 | C[N+](C)(CCOc1ccccc1)CC1COC(c2ccccc2)(c2ccccc2)O1 (stereo unspecified) | 24.5 nM | –
8 | O=C1CC2(CCCC2)CC(=O)N1CCN1CCCN(c2ccccc2Cl)CC1 | 236 nM | –
9 | c1ccc(OCCN[C@H]2COC[C@H](c3ccccc3)O2)cc1 | 407 nM | –
10 | CN(CCOc1ccccc1)CC1COC(c2ccccc2)(c2ccccc2)O1 (stereo unspecified) | 33.9 nM | –
11 | COc1ccccc1N1CCN(CC(O)COc2cccc3ccccc23)CC1 (stereo unspecified) [NAFTOPIDIL] | 5.88 nM | –
12 | COc1ccccc1N1CCN(CC2COC3(CCCCC3)O2)CC1 (stereo unspecified) | 91.2 nM | –
13 | c1ccc(OCCNC2COC(c3ccccc3)(c3ccccc3)CO2)cc1 (stereo unspecified) | 224 nM | –
14 | O=C1CC2(C=CN1CCN1CCN(c3ccccc3Cl)CC1)CCCC2 | 43.1 nM | 43.7 nM
15 | CC(C)Oc1ccccc1N1CCN(CCN2C(=O)CC3(CCCC3)CC2=O)CC1 | 2.83 nM | –
16 | COc1cccc(OC)c1OCCNC1COCC(c2ccccc2)(c2ccccc2)O1 (stereo unspecified) | 339 nM | –
17 | COc1cccc(OC)c1OCCNC[C@@H]1C(=O)c2ccccc2C[C@H]1c1ccccc1 | 8.7 nM | –
18 | COc1cccc(OC)c1OCCN[C@H]1COC[C@H](c2ccccc2)O1 | 468 nM | –

Row | SMILES | Ki (read-out: Ki) | Ki (read-out: pKi (converted))
19 | O=C1CC2(CCCC2)C(=O)N1CCN1CCN(c2cc(Cl)ccc2Cl)CC1 | 54.6 nM | –
20 | COc1cccc(OC)c1OCCN[C@H]1C[C@@H](c2ccccc2)c2ccccc2O1 | 0.05 nM | –
21 | c1ccc(OCCN[C@H]2CO[C@H](c3ccccc3)CO2)cc1 | 537 nM | –
22 | O=C1CC2(CCCC2)CC(=O)N1CCCCN1CCN(c2cc(Cl)ccc2Cl)CC1 | 1.45 nM | –
23 | COc1cc2nc3c(c(N)c2cc1OC)CC(CNC(=O)c1ccoc1)C3 (stereo unspecified) | 158 nM | –
24 | COc1cc2nc3c(c(N)c2cc1OC)CCC(CNCOc1c(OC)cccc1OC)C3 (stereo unspecified) | 1700 nM | –
25 | N#Cc1ccc(Cl)cc1N1CCN(CCN2C(=O)CC3(CCCC3)CC2=O)CC1 | 403 nM | 407 nM
26 | c1ccc(OCCNC2COCC(c3ccccc3)(c3ccccc3)O2)cc1 (stereo unspecified) | 170 nM | –
27 | COc1ccccc1N1CCN(CCN2C=CC3(CCCC3)CC2=O)CC1 | 23.4 nM | –
28 | COc1ccccc1OCCNC1COC(c2ccccc2)(c2ccccc2)CO1 (stereo unspecified) | 74.1 nM | –
29 | O=C1CC2(CCCC2)CCN1CCN1CCN(c2ccccc2Cl)CC1 | 70 nM | –
30 | COc1ccccc1N1CCN(CC2CO[C@H](c3cccc4ccccc34)O2)CC1 (stereo partly specified) | 7.94 nM | –
31 | Cc1ccc(Cl)c(N2CCN(CCN3C(=O)CC4(CCCC4)CC3=O)CC2)c1 | 100 nM | –
32 | COc1ccccc1N1CCN(CC2CO[C@@H](c3cccc4ccccc34)O2)CC1 (stereo partly specified) | 36.3 nM | –
33 | Cc1ccc(C)c(N2CCN(CCN3C(=O)CC4(CCCC4)CC3=O)CC2)c1 | 95.4 nM | –
34 | COc1cccc(OC)c1OCCN[C@H]1C[C@H](c2ccccc2)c2ccccc2S1 | 2.34 nM | –
35 | COc1cccc(OC)c1OCCN[C@H]1CO[C@H](c2ccccc2)CO1 | 513 nM | –
36 | N#Cc1ccccc1N1CCN(CCN2C(=O)CC3(CCCC3)CC2=O)CC1 | 171 nM | –
